In patent publication US9493461B2, “Tetracyclic heterocycle compounds and methods of use thereof for the treatment of hepatitis C” (priority 2013, dated 2016):
Like-named read-outs stand apart in the source and are kept apart here.

Experiments:
HCV replicon genotype 1a = assay: HCV replicon assay, genotype 1a (cell ELISA for replicon-encoded NS3/4A); type: cell-based, hepatitis C virus (HCV)
Method: Measurement of inhibition by compounds was performed using the HCV replicon system. Several different replicons encoding different HCV genotypes or mutations were used. In addition, potency measurements were made using different formats of the replicon assay, including different ways of measurements and different plating formats. See Jan M. Vrolijk et al., A replicons-based bioassay for the measurement of interferons in patients with chronic hepatitis C, 110 J. V[…] 201 (2003); Steven S. Carroll et al., Inhibition of Hepatitis C Virus RNA Replication by 2′-Modified Nucleoside Analogs, 278(14) J. BIOLOGICAL CHEMISTRY 11979 (2003). However, the underlying principles are common to all of these determinations, and are outlined below.
(§1) Stable neomycin phosphotransferase encoding replicons-harboring cell lines were used, so all cell lines were maintained under G418 selection prior to the assay. Potency was determined using a cell ELISA assay with an antibody to the replicons encoded NS3/4a protease. See Caterina Trozzi et al., In Vitro Selection and Characterization of Hepatitis C Virus Serine Protease Variants Resistant to an Active-Site Peptide Inhibitor, 77(6) J. Virol. 3669 (2003). To initiate an assay, replicon cells were plated in the presence of a dilution series of test compound in the absence of G418. Typically, the assays were performed in a 96-well plate formate for manual operation, or a 384-well plate format for automated assay. Replicon cells and compound were incubated for 96 hours. At the end of the assay, cells were washed free of media and compound, and the cells were then lysed. RNA was quantified indirectly through detection of replicon-encoded NS3/4A protein levels, through an ELISA-based assay with an antibody specific for NS3/4A. IC50 determinations were calculated as a percentage of a DMSO control by fitting the data to a four-parameter fit function and the data obtained is provided in the table below.
(§2) Data for selected compounds of the present invention was obtained for genotypes 1a and 1b using this method and is provided in the table below: […]

HCV replicon genotype 1b = assay: HCV replicon assay, genotype 1b (cell ELISA for replicon-encoded NS3/4A); type: cell-based, hepatitis C virus (HCV)
Method: The HCV NS5B inhibitory activity of the present compounds may be tested using assays known in the art. The HCV NS5B polymerase inhibitors described herein have activities in a genotype 1b replicon assay as described in the Examples. The assay is performed by incubating a replicon harboring cell-line in the presence of inhibitor for a set period of time and measuring the effect of the inhibitor on HCV replicon replication either directly by quantifying replicon RNA level, or indirectly by measuring enzymatic activity of a co-encoded reporter enzyme such as luciferase or β-lactamase. By performing a series of such measurements at different inhibitor concentrations, the effective inhibitory concentration of the inhibitor (EC50 or EC90) is determined See Jan M. Vrolijk et al., A replicons-based bioassay for the measurement of interferons in patients with chronic hepatitis C, 110 J. VIROLOGICAL METHODS 201 (2003). Such assays may also be run in an automated format for high through-put screening. See Paul Zuck et al., A cell-based β-lactamase reporter gene assay for the identification of inhibitors of hepatitis C virus replication, 334 ANALYTICAL BIOCHEMISTRY 344 (2004).
Measurement of inhibition by compounds was performed using the HCV replicon system. Several different replicons encoding different HCV genotypes or mutations were used. In addition, potency measurements were made using different formats of the replicon assay, including different ways of measurements and different plating formats. See Jan M. Vrolijk et al., A replicons-based bioassay for the measurement of interferons in patients with chronic hepatitis C, 110 J. VIROLOGICAL METHODS 201 (2003); Steven S. Carroll et al., Inhibition of Hepatitis C Virus RNA Replication by 2′-Modified Nucleoside Analogs, 278(14) J. BIOLOGICAL CHEMISTRY 11979 (2003). However, the underlying principles are common to all of these determinations, and are outlined below.
as §1, §2

[1] = Hepatitis C virus, 96 h, read-out: 1a IC50 (nM), genotype 1a replicon cells, 96 hours incubation, NS3/4A ELISA readout, % of DMSO control
[2] = Hepatitis C virus, 96 h, read-out: 1b IC50 (nM), genotype 1b replicon cells, 96 hours incubation, NS3/4A ELISA readout, % of DMSO control

Structure (SMILES)	IC50 (HCV replicon genotype 1a; [1]) [nM]	IC50 (HCV replicon genotype 1b; [2]) [nM]	IC50 (HCV replicon genotype 1a; read-out: 1a IC50, genotype 1a replicon cells, 96 hours incubation, NS3/4A ELISA readout, % of DMSO control) [nM]	IC50 (HCV replicon genotype 1b; read-out: 1b IC50, genotype 1b replicon cells, 96 hours incubation, NS3/4A ELISA readout, % of DMSO control) [nM]
CNC(=O)c1c(-n2ccccc2=O)oc2cc(N(C)S(C)(=O)=O)c(-c3ccc4ncn5c6cccc(F)c6cc5c4n3)cc12 [Example 11, 5-(11-fluoropyrido[3′,2′:4,5]pyrimido[1,6-a]indol-2-yl)-N-methyl-6-(N-methylmethylsulfonamido)-2-(2-oxopyridin-1(2H)-yl)benzofuran-3-carboxamide]	2.03	2.26		
CNC(=O)c1c(-n2ccc(C)cc2=O)oc2cc(N(C)S(C)(=O)=O)c(-c3ccc4ncn5c6cccc(F)c6cc5c4n3)cc12 [Example 12]	2.11	2.36		
CNC(=O)c1c(-n2cnc(C)n2)oc2cc(N(C)S(C)(=O)=O)c(-c3ccc4ncn5c6cccc(F)c6cc5c4n3)cc12 [Example 13]	298	99.5		
CNC(=O)c1c(-c2ccc(F)cc2)oc2nc(N(C)S(C)(=O)=O)c(-c3ccc4ncn5c6cccc(F)c6cc5c4n3)cc12 [Example 14, 2-(4-fluorophenyl)-5-(11-fluoropyrido[3′,2′:4,5]pyrimido[1,6-a]indol-2-yl)-N-methyl-6-(N-methylmethylsulfonamido)furo[2,3-b]pyridine-3-carboxamide]	1.75	3.72		
CNC(=O)c1c2cc(-c3ccc4ncn5c6cccc(F)c6cc5c4n3)c(N(C)S(C)(=O)=O)cc2nn1-c1ccc(F)cc1 [Example 15, 2-(4-fluorophenyl)-5-(11-fluoropyrido[3′,2′:4,5]pyrimido[1,6-a]indol-2-yl)-N-methyl-6-(N-methylmethylsulfonamido)-2H-indazole-3-carboxamide]	3.04	5.27		
CNC(=O)c1c(-c2ccc(F)cc2)nn2cc(N(C)S(C)(=O)=O)c(-c3ccc4ncn5c6cccc(F)c6cc5c4n3)cc12 [Example 16, 2-(4-fluorophenyl)-5-(11-fluoropyrido[3′,2′:4,5]pyrimido[1,6-a]indol-2-yl)-N-methyl-6-(N-methylmethylsulfonamido)pyrazolo[1,5-a]pyridine-3-carboxamide]	0.954	2.22		
CNC(=O)c1c(-c2ccc(C(F)(F)F)nc2)oc2cc(N(C)S(C)(=O)=O)c(-c3cc4c(cn3)ncn3c5cccc(F)c5cc43)cc12 [Example 17, 5-(11-fluoropyrido[3′,4′:4,5]pyrimido[1,6-a]indol-2-yl)-N-methyl-6-(N-methylmethylsulfonamido)-2-(6-(trifluoromethyl)pyridin-3-yl)benzofuran-3-carboxamide]	1.27	1.78		
CNC(=O)c1c(-c2ccc(OC(F)F)nc2)oc2cc(N(C)S(C)(=O)=O)c(-c3cc4c(cn3)ncn3c5cccc(F)c5cc43)cc12 [Example 18]	1.06	1.86		
CNC(=O)c1c(-c2ccc(C)nc2)oc2cc(N(C)S(C)(=O)=O)c(-c3cc4c(cn3)ncn3c5cccc(F)c5cc43)cc12 [Example 19]	2.79	5.64		
CNC(=O)c1c(-c2ccc(F)cc2)oc2cc(N(C)S(C)(=O)=O)c(-c3ccc4ncn5c6ccc(F)cc6cc5c4n3)cc12 [Example 20, 2-(4-fluorophenyl)-5-(10-fluoropyrido[3′,2′:4,5]pyrimido[1,6-a]indol-2-yl)-N-methyl-6-(N-methylmethylsulfonamido)benzofuran-3-carboxamide]	1.59	3.33		
CNC(=O)c1c(-c2ccc(F)cc2)oc2cc(N(C)S(C)(=O)=O)c(-c3ccc4[nH]c(=O)n5c6ccc(F)cc6cc5c4n3)cc12 [Example 21, 5-(10-fluoro-6-oxo-5,6-dihydropyrido[3′,2′:4,5]pyrimido[1,6-a]indol-2-yl)-2-(4-fluorophenyl)-N-methyl-6-(N-methylmethylsulfonamido)benzofuran-3-carboxamide]	7.61	8.74		
CNC(=O)c1c(-c2ccc(F)cc2)oc2cc(N(C)S(C)(=O)=O)c(-c3ccc4[nH]c(=O)n5c6cccc(F)c6cc5c4n3)cc12 [Example 22]	4.34	3.42		
CNC(=O)c1c(-c2ccc(F)cc2)oc2cc(N(C)S(C)(=O)=O)c(-c3ccc4nc(CS(C)(=O)=O)n5c6cccc(F)c6cc5c4n3)cc12 [Example 23, 5-(11-fluoro-6-((methylsulfonyl)methyl)pyrido[3′,2′:4,5]pyrimido[1,6-a]indol-2-yl)-2-(4-fluorophenyl)-N-methyl-6-(N-methylmethylsulfonamido)benzofuran-3-carboxamide]	1.85	2.98		
CNC(=O)c1c(-c2ccc(F)cc2)oc2cc(N(C)S(C)(=O)=O)c(-c3cc4c(cn3)nc(CS(C)(=O)=O)n3c5cccc(F)c5cc43)cc12 [Example 24]	2.73	1.9		
CNC(=O)c1c(-c2ccc(F)cc2)oc2cc(N(C)S(C)(=O)=O)c(-c3ccc4nc(N)n5c6cccc(F)c6cc5c4n3)cc12 [Example 25, 5-(6-amino-11-fluoropyrido[3′,2′:4,5]pyrimido[1,6-a]indol-2-yl)-2-(4-fluorophenyl)-N-methyl-6-(N-methylmethylsulfonamido)benzofuran-3-carboxamide]	245	145		
CNC(=O)c1c(-c2ccc(C)nc2)oc2cc(N(C)S(C)(=O)=O)c(-c3ccc4nc(CN5CC(F)C5)n5c6cccc(F)c6cc5c4n3)cc12 [Example 28, 5-(11-fluoro-6-((3-fluoroazetidin-1-yl)methyl)pyrido[3′,2′:4,5]pyrimido[1,6-a]indol-2-yl)-N-methyl-6-(N-methylmethylsulfonamido)-2-(6-methylpyridin-3-yl)benzofuran-3-carboxamide]	15.2	5.38		
CNC(=O)c1c(-n2ccccc2=O)oc2cc(N(C)S(C)(=O)=O)c(-c3ccc4nc(CN5CC(F)C5)n5c6cccc(F)c6cc5c4n3)cc12 [Example 29]	2.21	3.63		
CNC(=O)c1c(-n2ccc(C)cc2=O)oc2cc(N(C)S(C)(=O)=O)c(-c3ccc4nc(CN5CC(F)C5)n5c6cccc(F)c6cc5c4n3)cc12 [Example 30]	2.41	2.32		
CNC(=O)c1c(-c2ccc(F)nc2)oc2cc(N(C)S(C)(=O)=O)c(-c3ccc4nc(CN5CC(F)C5)n5c6cccc(F)c6cc5c4n3)cc12 [Example 31]	2.95	4.69		
CCn1cc(-c2oc3cc(N(C)S(C)(=O)=O)c(-c4ccc5nc(CN6CC(F)C6)n6c7cccc(F)c7cc6c5n4)cc3c2C(=O)NC)cn1 [Example 32]	18.6	8.23		
CNC(=O)c1c(C2CC2)oc2cc(N(C)S(C)(=O)=O)c(-c3ccc4nc(CN5CC(F)C5)n5c6cccc(F)c6cc5c4n3)cc12 [Example 33]			2.35	2.55
CNC(=O)c1c(-c2ccc(OC)nc2)oc2cc(N(C)S(C)(=O)=O)c(-c3ccc4nc(CN5CC(F)C5)n5c6cccc(F)c6cc5c4n3)cc12 [Example 34]	2.43	4.66		
CNC(=O)c1c(-n2ccc(C)cc2=O)oc2cc(N(C)S(C)(=O)=O)c(-c3ccc4nc(CN5CC(C)(C#N)C5)n5c6cccc(F)c6cc5c4n3)cc12 [Example 36]	2.49	3.21		
CNC(=O)c1c(-c2ccc(F)cc2F)oc2cc(N(C)S(C)(=O)=O)c(-c3ccc4nc(CN5CC(F)C5)n5c6cccc(F)c6cc5c4n3)cc12 [Example 37]	5.26	7.26		
